Reference: ChEMBL document CHEMBL4396865, “Current advances of triazole alcohols derived from fluconazole: Design, in vitro and in silico studies” (2019)
≈ marks a conversion by molar mass, not a printed value.

Assays:
Format in all cases: functional
[1] = tested on: Candida parapsilosis; assay: Antifungal activity against Candida parapsilosis
[2] = tested on: Cryptococcus neoformans; assay: Antifungal activity against Cryptococcus neoformans
[3] = tested on: Candida albicans; assay: Antifungal activity against Candida albicans
[4] = tested on: Trichophyton rubrum; assay: Antifungal activity against Trichophyton rubrum
[5] = tested on: Aspergillus fumigatus; assay: Antifungal activity against Aspergillus fumigatus
[6] = tested on: Kluyveromyces marxianus; assay: Antifungal activity against Candida kefyr
[7] = tested on: Candida tropicalis; assay: Antifungal activity against Candida tropicalis
[8] = tested on: Candida albicans; assay: Antifungal activity against Candida albicans after 24 hrs by NCCLS protocol based method
[9] = tested on: Cryptococcus neoformans; assay: Antifungal activity against Cryptococcus neoformans after 72 hrs by NCCLS protocol based method
[10] = Lodderomyces parapsilosis, read-out: MIC
[11] = Cryptococcus neoformans, read-out: MIC
[12] = Trichophyton rubrum, read-out: MIC

| MIC [1] [ng/mL] | MIC [2] [ng/mL] | MIC [3] [ng/mL] | MIC [4] [ng/mL] | MIC [5] [ng/mL] | MIC [6] [ng/mL] | MIC [7] [ng/mL] | Compound | also measured |
| --- | --- | --- | --- | --- | --- | --- | --- | --- |
| 0.24 to 250 | 0.24 to 250 | 0.24 to 250 | 0.24 to 250 | 0.24 to 250 | 0.24 to 250 | 0.24 to 250 | C#CCN(Cc1ccc(F)cc1)CC(O)(Cn1cncn1)c1ccc(F)cc1F (stereo unspecified) | – |
| 0.24 to 250 | 0.24 to 250 | 0.24 to 250 | 0.24 to 250 | 0.24 to 250 | 0.24 to 250 | 0.24 to 250 | C#CCN(Cc1cccc(C#N)c1)CC(O)(Cn1cncn1)c1ccc(F)cc1F (stereo unspecified) | – |
| 0.24 to 250 | 0.24 to 250 | 0.24 to 250 | 0.24 to 250 | 0.24 to 250 | 0.24 to 250 | 0.24 to 250 | C#CCN(Cc1ccc(OC)cc1)CC(O)(Cn1cncn1)c1ccc(F)cc1F (stereo unspecified) | – |
| 0.24 to 250 | 0.24 to 250 | 0.24 to 250 | 0.24 to 250 | 0.24 to 250 | 0.24 to 250 | 0.24 to 250 | C#CCN(Cc1cccc(F)c1)CC(O)(Cn1cncn1)c1ccc(F)cc1F (stereo unspecified) | – |
| 0.24 to 250 | 0.24 to 250 | 0.24 to 250 | 0.24 to 250 | 0.24 to 250 | 0.24 to 250 | 0.24 to 250 | C#CCN(Cc1ccc([N+](=O)[O-])cc1)CC(O)(Cn1cncn1)c1ccc(F)cc1F (stereo unspecified) | – |
| 0.24 to 250 | 0.24 to 250 | 0.24 to 250 | 0.24 to 250 | 0.24 to 250 | 0.24 to 250 | 0.24 to 250 | C#CCN(Cc1cccc(Cl)c1)CC(O)(Cn1cncn1)c1ccc(F)cc1F (stereo unspecified) | – |
| – | – | – | – | – | – | – | Cc1ccccc1-c1nnc(SCc2cn(CC(O)(Cn3cncn3)c3ccc(F)cc3F)nn2)o1 (stereo unspecified) | MIC80 ([3]; Candida albicans): 500 ng/mL (≈ 979 nM) |
| – | – | – | – | – | – | – | CCCc1ccc(-c2nnc(SCc3cn(CC(O)(Cn4cncn4)c4ccc(F)cc4F)nn3)o2)cc1 (stereo unspecified) | MIC80 ([3]; Candida albicans): 500 ng/mL (≈ 928 nM) |
| 0.24 to 250 | 0.24 to 250 | 0.24 to 250 | 0.24 to 250 | 0.24 to 250 | 0.24 to 250 | 0.24 to 250 | C#CCN(Cc1cccc(C)c1)CC(O)(Cn1cncn1)c1ccc(F)cc1F (stereo unspecified) | – |
| 0.24 to 250 | 0.24 to 250 | 0.24 to 250 | 0.24 to 250 | 0.24 to 250 | 0.24 to 250 | 0.24 to 250 | C#CCN(Cc1ccccc1Br)CC(O)(Cn1cncn1)c1ccc(F)cc1F (stereo unspecified) | – |
| 0.24 to 250 | 0.24 to 250 | 0.24 to 250 | 0.24 to 250 | 0.24 to 250 | 0.24 to 250 | 0.24 to 250 | C#CCN(Cc1ccc(Cl)cc1)CC(O)(Cn1cncn1)c1ccc(F)cc1F (stereo unspecified) | – |
| 0.24 to 250 | 0.24 to 250 | 0.24 to 250 | 0.24 to 250 | 0.24 to 250 | 0.24 to 250 | 0.24 to 250 | C#CCN(Cc1ccc(Br)cc1)CC(O)(Cn1cncn1)c1ccc(F)cc1F (stereo unspecified) | – |
| 0.24 to 250 | 0.24 to 250 | 0.24 to 250 | 0.24 to 250 | 0.24 to 250 | 0.24 to 250 | 0.24 to 250 | C#CCN(Cc1ccccc1Cl)CC(O)(Cn1cncn1)c1ccc(F)cc1F (stereo unspecified) | – |
| 0.24 to 250 | 0.24 to 250 | 0.24 to 250 | 0.24 to 250 | 0.24 to 250 | 0.24 to 250 | 0.24 to 250 | C#CCN(Cc1ccc(C#N)cc1)CC(O)(Cn1cncn1)c1ccc(F)cc1F (stereo unspecified) | – |
| – | – | – | – | – | – | – | CCN(Cc1cn(Cc2ccc(Cl)cc2)nn1)CC(O)(Cn1cncn1)c1ccc(F)cc1F (stereo unspecified) | MIC [1, 10]: 3.9 to 62.5 ng/mL (≈ 7.99 to 128 nM); MIC [2, 11]: 3.9 to 62.5 ng/mL (≈ 7.99 to 128 nM); MIC ([3]; Candida albicans, read-out: MIC): 3.9 to 62.5 ng/mL (≈ 7.99 to 128 nM); MIC [4, 12]: 3.9 to 62.5 ng/mL (≈ 7.99 to 128 nM); MIC ([6]; Kluyveromyces marxianus, read-out: MIC): 3.9 to 62.5 ng/mL (≈ 7.99 to 128 nM); MIC ([7]; Candida tropicalis, read-out: MIC): 3.9 to 62.5 ng/mL (≈ 7.99 to 128 nM) |
| 0.24 to 250 | 0.24 to 250 | 0.24 to 250 | 0.24 to 250 | 0.24 to 250 | 0.24 to 250 | 0.24 to 250 | C#CCN(Cc1ccccc1C#N)CC(O)(Cn1cncn1)c1ccc(F)cc1F (stereo unspecified) | – |
| – | – | – | – | – | – | – | O=C1S/C(=C\c2ccco2)C(=O)N1CC(O)(Cn1cncn1)c1ccc(F)cc1F (stereo unspecified) | MIC80 [8]: 0.03 to 0.15 µM (≈ 0.013 to 0.0649 µg/mL); MIC80 [9]: 0.12 µM (≈ 0.0519 µg/mL) |

| MIC [1] [ng/mL] | MIC [2] [ng/mL] | MIC [3] [ng/mL] | MIC [4] [ng/mL] | MIC [5] [ng/mL] | MIC [6] [ng/mL] | MIC [7] [ng/mL] | Compound | also measured |
| --- | --- | --- | --- | --- | --- | --- | --- | --- |
| 0.24 to 250 | 0.24 to 250 | 0.24 to 250 | 0.24 to 250 | 0.24 to 250 | 0.24 to 250 | 0.24 to 250 | C#CCN(Cc1ccc(C)cc1)CC(O)(Cn1cncn1)c1ccc(F)cc1F (stereo unspecified) | – |
| 0.24 to 250 | 0.24 to 250 | 0.24 to 250 | 0.24 to 250 | 0.24 to 250 | 0.24 to 250 | 0.24 to 250 | C#CCN(Cc1ccccc1[N+](=O)[O-])CC(O)(Cn1cncn1)c1ccc(F)cc1F (stereo unspecified) | – |
| – | – | – | – | – | – | – | CCN(Cc1cn(Cc2ccc(Cl)cc2Cl)nn1)CC(O)(Cn1cncn1)c1ccc(F)cc1F (stereo unspecified) | MIC [4, 12]: 3.9 ng/mL (≈ 7.47 nM) |
| 0.24 to 250 | 0.24 to 250 | 0.24 to 250 | 0.24 to 250 | 0.24 to 250 | 0.24 to 250 | 0.24 to 250 | C#CCN(Cc1ccc(Cl)cc1Cl)CC(O)(Cn1cncn1)c1ccc(F)cc1F (stereo unspecified) | – |
| 0.24 to 250 | 0.24 to 250 | 0.24 to 250 | 0.24 to 250 | 0.24 to 250 | 0.24 to 250 | 0.24 to 250 | C#CCN(Cc1c(Cl)cccc1Cl)CC(O)(Cn1cncn1)c1ccc(F)cc1F (stereo unspecified) | – |
| – | – | – | – | – | – | – | OC(Cc1cn(Cn2ncc(CC3CCCCC3)n2)nn1)(Cn1cncn1)c1ccc(F)cc1F (stereo unspecified) | MIC [1, 10]: 3 ng/mL (≈ 6.2 nM); MIC [2, 11]: 0.15 ng/mL (≈ 0.31 nM) |
| 0.24 to 250 | 0.24 to 250 | 0.24 to 250 | 0.24 to 250 | 0.24 to 250 | 0.24 to 250 | 0.24 to 250 | C#CCN(Cc1ccccc1F)CC(O)(Cn1cncn1)c1ccc(F)cc1F (stereo unspecified) | – |
| – | – | – | – | – | – | – | CCCCCCc1cnn(Cn2cc(CC(O)(Cn3cncn3)c3ccc(F)cc3F)nn2)n1 (stereo unspecified) | MIC [1, 10]: 3 ng/mL (≈ 6.36 nM); MIC [2, 11]: 0.15 ng/mL (≈ 0.318 nM) |
| 0.24 to 250 | 0.24 to 250 | 0.24 to 250 | 0.24 to 250 | 0.24 to 250 | 0.24 to 250 | 0.24 to 250 | C#CCN(Cc1ccccc1C)CC(O)(Cn1cncn1)c1ccc(F)cc1F (stereo unspecified) | – |
| 0.24 to 250 | 0.24 to 250 | 0.24 to 250 | 0.24 to 250 | 0.24 to 250 | 0.24 to 250 | 0.24 to 250 | C#CCN(Cc1ccccc1)CC(O)(Cn1cncn1)c1ccc(F)cc1F (stereo unspecified) | – |
| 0.24 to 250 | 0.24 to 250 | 0.24 to 250 | 0.24 to 250 | 0.24 to 250 | 0.24 to 250 | 0.24 to 250 | C#CCN(Cc1cccc([N+](=O)[O-])c1)CC(O)(Cn1cncn1)c1ccc(F)cc1F (stereo unspecified) | – |
| – | – | – | – | – | – | – | O=C1S/C(=C\c2ccc(Cl)cc2Cl)C(=O)N1CC(O)(Cn1cncn1)c1ccc(F)cc1F (stereo unspecified) | MIC80 [8]: 0.03 to 0.15 µM (≈ 0.0153 to 0.0767 µg/mL); MIC80 [9]: 0.12 µM (≈ 0.0614 µg/mL) |
| – | – | – | – | – | – | – | CN(CCOc1ccc(CC2SC(=O)N(CC(O)(Cn3cncn3)c3ccc(F)cc3F)C2=O)cc1)c1ccccn1 (stereo unspecified) | MIC80 [8]: 6.72 µM (≈ 4 µg/mL); MIC80 [9]: 13.4 µM (≈ 8 µg/mL) |
| – | – | – | – | – | – | – | O=C1S/C(=C\c2ccoc2)C(=O)N1CC(O)(Cn1cncn1)c1ccc(F)cc1F (stereo unspecified) | MIC80 [8]: 0.03 to 0.15 µM (≈ 0.013 to 0.0649 µg/mL); MIC80 [9]: 0.12 µM (≈ 0.0519 µg/mL) |
| 0.24 to 250 | 0.24 to 250 | 0.24 to 250 | 0.24 to 250 | 0.24 to 250 | 0.24 to 250 | 0.24 to 250 | C#CCN(Cc1cccc(Br)c1)CC(O)(Cn1cncn1)c1ccc(F)cc1F (stereo unspecified) | – |
| – | – | – | – | – | – | – | Cc1cccc(-c2cn(CC(O)(Cn3cncn3)c3ccc(F)cc3F)nn2)c1 (stereo unspecified) | MIC [4, 12]: 250 ng/mL (≈ 631 nM) |
